A word on the vapor or sublimation pressure: it is the equilibrium pressure above the liquid or solid.

Experimental findings from the NIST ThermoML archive (doi:10.1021/je100932m) are described below.

For the data set the following is noted: Liquid.

± gives the expanded uncertainty stated by the source.

As for `COC(C)=O` [methyl ethanoate], for the setting “329.97 K”, the “vapor or sublimation pressure” value is recorded as 101.3 ± 0.86 kPa. In the case of `CO` [methanol], the “vapor or sublimation pressure” value (337.57 K) worked out at 101.3 ± 0.86 kPa.
